# Results published in article PMC7251097, “Aspartate/asparagine-β-hydroxylase: a high-throughput mass spectrometric assay for discovery of small molecule inhibitors” (Scientific Reports, 2020).
# Where a name gives a salt, the structure may show the parent alone. Read-outs that look alike come from different tables or passages of the source.
# Target: T1, His6-AspH315–758 (human aspartate/asparagine-β-hydroxylase, AspH) (Homo sapiens, UniProt Q12797)
# T1 construct: N-Terminally His6-tagged human AspH315–758 (His6-AspH315–758) was produced in E. coli BL21 (DE3) cells; made in house; host or cells: E. coli BL21 (DE3), pET-28a(+) vector
# T1 sequence (Q12797 315-758): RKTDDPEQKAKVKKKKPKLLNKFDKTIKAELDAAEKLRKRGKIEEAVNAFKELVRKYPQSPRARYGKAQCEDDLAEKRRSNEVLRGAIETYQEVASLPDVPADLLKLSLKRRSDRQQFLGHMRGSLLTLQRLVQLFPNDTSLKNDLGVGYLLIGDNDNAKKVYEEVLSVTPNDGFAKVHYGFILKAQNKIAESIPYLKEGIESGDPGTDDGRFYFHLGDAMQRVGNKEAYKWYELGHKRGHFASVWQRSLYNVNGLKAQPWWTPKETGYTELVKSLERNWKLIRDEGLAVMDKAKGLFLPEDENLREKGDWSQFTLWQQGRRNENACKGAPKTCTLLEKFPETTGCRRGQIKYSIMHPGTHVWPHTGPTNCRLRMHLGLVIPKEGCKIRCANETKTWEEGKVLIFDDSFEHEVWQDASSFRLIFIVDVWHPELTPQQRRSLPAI
# Assay: SPE-MS AspH inhibition assay (LOPAC screen at fixed 20 μM and IC50 dose-response), hydroxylation of cyclic peptide hFX-CP101–119
# Assay type: biochemical
# [1] = LOPAC compound at 20uM, plate 2, conversion of substrate peptide
# [2] = LOPAC compound at 20uM, plate 2, normalised to DMSO and 2,4-PDCA controls
# [3] = LOPAC Plate 4, compound at 20 uM
# [4] = LOPAC Plate 4, compound at 20 uM, substrate conversion
# [5] = LOPAC compound at fixed 20 uM, plate 1, normalised to DMSO and 2,4-PDCA controls
# [6] = LOPAC compound at fixed 20 uM, substrate conversion, plate 1
# [7] = plate 5 (Pfitzer), test compounds at fixed 20 μM, mean conversion DMSO 32.88
# [8] = LOPAC Plate 4, compound at 20 uM, read-out: % inhibition
# [9] = LOPAC compound at 20uM, plate 3, conversion of substrate peptide
compound,measurement,setting,value
CCn1c(=O)[nH]c2cc(Cl)c(Cl)cc21 [DCEBIO],Plate 2 (% conversion),[1],39.27%
same,Plate 2 (% inhibition),[2],-9.89%
trans-(±)-ACPD,Plate 1 (% conversion),,37.46%
same,Plate 1 (% inhibition),,-4.72%
CN1[C@@H]2CC[C@H]1C[C@@H](OC(=O)C(CO)c1ccccc1)C2 (stereo partly shown) [Atropine sulfate],Plate 1 (% inhibition),,2.77%
Cl.NC[C@@H]1O[C@H](c2ccccc2)Cc2c1ccc(O)c2O [A-68930 hydrochloride],% inhibition,[3],78.36%
same,% conversion,[4],9.73%
CC(C)(CO)Cc1cc(C(C)(C)C)c(O)c(C(C)(C)C)c1 [CGP-7930],Plate 1 (% inhibition),[5],-11.33%
same,Plate 1 (% conversion),[6],39.68%
N[C@@H](Cn1ccc(=O)c(O)c1)C(=O)O [L-Mimosine from Koa hoale seeds],% conversion,,35.13%
same,% inhibition,[3],3.94%
O=S(=O)(N[C@H](CO)C(C(F)(F)F)C(F)(F)F)c1ccc(Cl)s1 [GSI-953],Plate 5 (% inhibition),"plate 5 (Pfitzer), test compounds at fixed 20 μM",5.55%
same,Plate 5 (% conversion),[7],34.43%
COc1cc2c(cc1OC)C1CC(=O)C(CC(C)C)CN1CC2 (stereo not shown) [Tetrabenazine],% conversion,[4],27.36%
"Nc1ccn([C@H]2CC[C@@H](CO)O2)c(=O)n1 [2,3-dideoxycytidine]",Plate 2 (% conversion),[1],37.68%
same,Plate 2 (% inhibition),[2],-5.15%
O=C(O)c1ccccc1Nc1ccccc1 [N-Phenylanthranilic acid],Plate 1 (% inhibition),[5],20.57%
same,Plate 1 (% conversion),[6],28.96%
CCCCCCCCc1ccc(-c2ccc(C(=O)O)cc2)cc1 [AC-55649],% conversion,,33.36%
same,% inhibition,20 µM,9.11%
O=C(Nc1cccnc1)N1CCC(Cc2cccc(Oc3ccc(C(F)(F)F)cn3)c2)CC1 [PF 3845 hydrate],Plate 1 (% conversion),,45.36%
same,Plate 1 (% inhibition),,-28.26%
N[C@@H]1CON=C1O [D-Cycloserine],Plate 1 (% inhibition),[5],-7.97%
same,Plate 1 (% conversion),[6],38.55%
"Br.C=CCN1CCc2c(cc(O)c(O)c2Cl)C(c2ccccc2)C1 (racemic) [(±)-Chloro-APB hydrobromide, reference compound]",Inhibition at 20 µM [%],"AspH activity, fixed compound concentration 20 μM, initial LOPAC screen, 0.5%v/v DMSO",95.8%
same,Plate 2 (% conversion),[1],3.87%
same,Plate 2 (% inhibition),[2],95.82%
CN(C)CCC(c1ccc(Br)cc1)c1ccccn1.O=C(O)/C=C\C(=O)O (racemic) [(±)-Brompheniramine maleate],Plate 1 (% inhibition),[5],8.96%
same,Plate 1 (% conversion),[6],32.86%
C/C=C(/C)C(=O)O[C@H]1C(C)=C2[C@H]([C@@H]1OC(=O)CCCCCCC)[C@@](C)(OC(C)=O)C[C@H](OC(=O)CCC)[C@@]1(O)[C@H]2OC(=O)[C@@]1(C)O [Thapsigargin],% conversion,,31.20%
Nc1nc2ccc(OC(F)(F)F)cc2s1 [Riluzole],% conversion,[4],38.21%
same,inhibition at 20 µM,[8],-5.09%
O=C(Nc1ccncc1)c1cc([N+](=O)[O-])ccc1Cl [T0070907],Plate 3 (% conversion),[9],31.53%
C[C@]12CCC(=O)C=C1CC[C@@H]1[C@@H]2C(=O)C[C@@]2(C)[C@H]1CC[C@]2(O)C(=O)CO [Cortisone],Plate 1 (% inhibition),[5],-8.46%
same,Plate 1 (% conversion),[6],38.71%
COc1ccccc1N1CCN(CCCNc2cc(=O)n(C)c(=O)n2C)CC1 [Urapidil hydrochloride],% conversion,[4],27.32%
Cc1nc2sccn2c(=O)c1CCN1CCC(=C(c2ccc(F)cc2)c2ccc(F)cc2)CC1 [Ritanserin],% conversion,[4],37.56%
CC(C)c1ccc(CC(=O)N2CCC[C@@H](c3cccc(OC(C)(C)C(=O)O)c3)C2)cc1 [CP-775146],Plate 5 (% conversion),,34.51%
same,Plate 5 (% inhibition),,5.31%
CN1CCN(CCCN2c3ccccc3Sc3ccc(C(F)(F)F)cc32)CC1 [Trifluoperazine dihydrochloride],inhibition at 20 µM,,-68.5%
CN1C[C@H](C(=O)N[C@]2(C)O[C@@]3(O)[C@@H]4CCCN4C(=O)[C@H](Cc4ccccc4)N3C2=O)C[C@@H]2c3cccc4[nH]cc(c34)C[C@H]21 [Dihydroergotamine methanesulfonate],Plate 2 (% conversion),,37.10%
same,inhibition at 20 µM,read-out: Plate 2 (% inhibition),-3.42%
CN(c1ccccc1CNc1nc(Nc2ccc3c(c2)CC(=O)N3)ncc1C(F)(F)F)S(C)(=O)=O.O [PF-431396 hydrate],Plate 1 (% inhibition),[5],-15.66%
same,Plate 1 (% conversion),[6],41.13%
O=C(O)/C=C\C(=O)O.c1cnc(N2CCN(Cc3ccc4c(c3)OCO4)CC2)nc1 [Piribedil maleate],% inhibition,[3],-4.83%
same,% conversion,[4],38.12%
CN(C)C(=O)Oc1ccc[n+](C)c1 [Pyridostigmine bromide],% conversion,,37.84%
Picrotoxin,Plate 3 (% conversion),,36.08%
Cl.N=C(N)c1ccc(CS(=O)(=O)F)cc1,Plate 3 (% conversion),,34.27%
"CN(C)C(=O)N=NC(=O)N(C)C [N,N,N,N-Tetramethylazodicarboxamide]",Plate 2 (% conversion),[1],38.74%
same,Plate 2 (% inhibition),[2],-8.32%
CNCCCC1c2ccccc2C=Cc2ccccc21 [Protriptyline hydrochloride],% conversion,[4],29.36%
same,inhibition at 20 µM,[8],20.8%
FC(F)(F)c1ccccc1-n1ccnc1 [1-[2-(Trifluoromethyl)phenyl]imidazole],% conversion,[4],26.55%
Nc1ccc(-c2ccc3ccccc3n2)cc1 [BF-170 hydrochloride],% inhibition,[3],-2.46%
same,% conversion,[4],37.31%
CC(C)c1cccc(C(C)C)c1N1C(=O)c2ccc(O)cc2C1=O [5HPP-33],% conversion,,25.79%
"CCCn1c(=O)c2[nH]c(-c3ccc(S(=O)(=O)O)cc3)nc2n(CCC)c1=O [1,3-Dipropyl-8-p-sulfophenylxanthine]",Plate 1 (% inhibition),[5],-2.36%
same,Plate 1 (% conversion),[6],36.66%
O=C(O)C(O)C(O)C(=O)O.c1cnc2cc3c(cc2n1)[C@@H]1CNC[C@H]3C1 [Varenicline tartrate],Plate 1 (% inhibition),[5],66.93%
same,Plate 1 (% conversion),[6],13.40%
COc1ccc2[nH]c3c(c2c1)CCNC3,Plate 1 (% conversion),,36.98%
same,Plate 1 (% inhibition),[5],-3.29%
CC[C@@]1(O)C(=O)OCc2c1cc1n(c2=O)Cc2cc3c(CN(C)C)c(O)ccc3nc2-1.Cl.O [Topotecan hydrochloride hydrate],Plate 3 (% conversion),[9],37.14%
CC(C)(C)NCC(O)c1ccccc1Cl (stereo not shown) [Tulobuterol hydrochloride],% conversion,[4],41.18%
same,inhibition at 20 µM,[8],-13.8%
COc1cccc(C(=O)NCCN2CCN(c3ccc(Cl)cc3)CC2)c1,Plate 1 (% inhibition),[5],-7.35%
same,Plate 1 (% conversion),[6],38.34%
CC(=O)OC[C@H]1O[C@@H]([S-])[C@H](OC(C)=O)[C@@H](OC(C)=O)[C@@H]1OC(C)=O.CCP(CC)CC.[Au+] [Auranofin],% conversion,,18.61%
same,% inhibition,20 µM,52.32%
C=CC[C@H](N)C(=O)O [L-allylglycine],Plate 1 (% inhibition),[5],0.29%
same,Plate 1 (% conversion),[6],35.78%
CC(N)Cc1c[nH]c2ccc(OCc3cccs3)cc12 (stereo not shown) [BW 723C86],Plate 3 (% conversion),,36.52%
C=C1C[C@@H]2[C@H](CC[C@]3(C)C(=O)CC[C@@H]23)[C@@]2(C)C=CC(=O)C=C12 [Exemestane],Plate 5 (% inhibition),,2.56%
same,Plate 5 (% conversion),[7],35.45%
Nc1ncnc2c1ncn2[C@@H]1O[C@H](CO)[C@@H](O)[C@H]1O [Adenosine],Plate 1 (% inhibition),[5],4.27%
same,Plate 1 (% conversion),[6],34.44%
O=C(O)CNC(=O)C(CS)Cc1ccccc1 (racemic) [DL-Thiorphan],% conversion,,36.55%
same,inhibition at 20 µM,,-0.22%
CN1CC[C@@]2(C)c3cc(O)ccc3N(C)[C@@H]12.O=C(O)/C=C/C(=O)O [(-)-Eseroline fumarate],Plate 2 (% conversion),,19.71%
same,Plate 2 (% inhibition),20 µM,48.52%
Cc1ccc(=O)n(-c2ccccc2)c1 [Pirfenidone],Plate 3 (% conversion),[9],40.30%
